Where two headings read alike, the source gives them in different places.
Experiments:
[1] = system: Klebsiella pneumoniae expressing VIM-1 (IHMA599644); experiment: Antibiotic potentiation activity: synergistic concentration (MITC95) with imipenem, OD600 growth; format: cell-based; conditions: for Klebsiella pneumoniae expressing VIM-1 (IHMA 599644) MITC95: concentration giving 95% inhibition of bacterial growth
Summary of the method: (§1)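 Steps: colonies grown overnight at 35 °C; resuspended in saline to OD600 0.11–0.15 by strain; diluted 1:100 into 1.1× CAMHB; imipenem then compound added (antibiotic 4 μg/ml in assay); incubated 35 °C for 22–24 h; absorbance measured.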

[2] = system: Escherichia coli expressing NDM-1 (CLB30016); experiment: as above; format: cell-based; conditions: for Escherichia coli expressing NDM-1 (CLB 30016) MITC95: concentration giving 95% inhibition of bacterial growth
Summary of the method: as §1

[3] = system: Serratia marcescens expressing IMP-1 (CL5741); experiment: as above; format: cell-based; conditions: for Serratia marcescens expressing IMP-1 (CL5741) MITC95: concentration giving 95% inhibition of bacterial growth
Summary of the method: as §1

IMP-1 = IMP-1 (Serratia marcescens, UniProt P52699); experiment: biochemical; format: biochemical; conditions: read-out: IMP-1 IC50
NDM-1 = NDM-1 (Klebsiella pneumoniae, UniProt C7C422); experiment: biochemical; format: biochemical; conditions: read-out: NDM-1 IC50
VIM-1 = VIM-1 (Pseudomonas aeruginosa (strain ATCC 15692 / DSM 22644 / CIP 104116 / JCM 14847 / LMG 12228 / 1C / PRS 101 / PAO1), UniProt A0A0F7KYQ8); experiment: Enzyme activity: determination of IC50, fluorescence assay with CCF2-FA substrate (VIM-1); format: biochemical; conditions: read-out: VIM-1 IC50
[4] = Klebsiella pneumoniae IHMA599644 (VIM-1), 95% growth inhibition
[5] = (CLB30016, NDM-1), 95% growth inhibition
[6] = Serratia marcescens CL5741 (IMP-1), 95% growth inhibition
[7] = IMP-1 enzyme, CCF2-FA substrate
[8] = NDM-1 enzyme, CCF2-FA substrate
[9] = VIM-1 enzyme, CCF2-FA substrate
[10] = fluorescence assay with CCF2-FA substrate

NDM-1, sequence (C7C422 whole entry, looked up, species assumed): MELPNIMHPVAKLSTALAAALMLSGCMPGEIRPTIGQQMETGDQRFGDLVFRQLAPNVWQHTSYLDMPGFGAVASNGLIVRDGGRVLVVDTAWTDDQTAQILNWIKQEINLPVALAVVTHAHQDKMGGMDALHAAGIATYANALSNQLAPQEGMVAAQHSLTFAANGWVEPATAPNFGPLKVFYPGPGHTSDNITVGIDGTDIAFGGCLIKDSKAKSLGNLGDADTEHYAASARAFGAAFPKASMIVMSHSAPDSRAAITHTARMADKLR
IMP-1, sequence (P52699 whole entry, looked up): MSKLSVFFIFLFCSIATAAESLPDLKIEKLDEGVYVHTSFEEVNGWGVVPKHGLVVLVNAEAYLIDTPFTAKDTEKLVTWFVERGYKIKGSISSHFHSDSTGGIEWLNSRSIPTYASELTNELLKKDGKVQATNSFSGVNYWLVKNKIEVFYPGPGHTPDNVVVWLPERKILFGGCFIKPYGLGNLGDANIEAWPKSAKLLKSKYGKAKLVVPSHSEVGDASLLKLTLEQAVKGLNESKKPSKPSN

Row | SMILES | Klebsiella pneumoniae MITC95 [1, 4] | Escherichia coli MITC95 [2, 5] | Serratia marcescens MITC95 [3, 6] | IC50 (IMP-1; [7]) | IC50 (NDM-1; [8]) | IC50 (VIM-1; [9]) | IC50 (IMP-1; [10]) | IC50 (NDM-1; [10]) | IC50 (VIM-1; [10]) | also measured
1 | NS(=O)(=O)c1cccc(-c2ccc(N3CCC(O)C3)nc2)c1-c1nnn[nH]1 (stereo not drawn) [Example 633, 3-[6-(3-hydroxypyrrolidin-1-yl)-3-pyridyl]-2-(1H-tetrazol-5-yl)benzenesulfonamide] | 37.5 µM | 0.125 µM | 4.833 µM | 66.4 nM | 4.88 nM | 120 nM | – | – | – | –
2 | CN(C)CCNc1nc2c(-c3cccc(S(N)(=O)=O)c3-c3nn[nH]n3)cccc2s1 [Example 640, 3-[2-[2-(dimethylamino)ethylami-no]-1,3-benzothiazol-4-yl]-2-(2H-tetrazol-5-yl)benzenesulfonamide] | 100 µM | 1.563 µM | 100 µM | 194 nM | 0.855 nM | 9.84 nM | – | – | – | –
3 | NS(=O)(=O)c1c(C(F)(F)F)ccc(-c2cccc(N3CCNCC3)c2)c1-c1nnn[nH]1 [Example 723, 3′-piperazin-1-yl-2-(1H-tetrazol-5-yl)-4-(trifluoromethyl)biphenyl-3-sulfonamide] | 12.5 µM | 6.25 µM | 25 µM | 17.2 nM | 7.78 nM | 1.26 nM | – | – | – | –
4 | NS(=O)(=O)c1c(C(F)(F)F)ccc(C2CCCc3sc(C(=O)O)nc32)c1-c1nnn[nH]1 (stereo not drawn) [Example 510, 4-(3-Sulfamoyl-2-(1H-tetrazol-5-yl)-4-(trifluoromethyl)phenyl)-4,5,6,7-tetrahydrobenzo[d]thiazole-2-carboxylic acid] | >200 µM | 50 µM | 200 µM | 47.4 nM | 3.42 nM | 12.8 nM | – | – | – | –
5 | NS(=O)(=O)c1cccc(C2CCC(N3CCNCC3)CC2)c1-c1nn[nH]n1 (stereo not drawn) [Example 170, 3-(4-(piperazin-1-yl)cyclohexyl)-2-(2H-tetrazol-5-yl)benzenesulfonamide] | – | – | – | – | – | – | 577 nM | 21.9 nM | 3470 nM | Klebsiella pneumoniae expressing VIM-1 (IHMA 599644) MITC95 [1]: 200 µM; Escherichia coli expressing NDM-1 (CLB 30016) MITC95 [2]: 1.563 µM; Serratia marcescens expressing IMP-1 (CL5741) MITC95 [3]: 9.375 µM
6 | NS(=O)(=O)c1cccc(-c2ccc(N3CCC(CO)C3)nc2)c1-c1nnn[nH]1 (stereo not drawn) [Example 622, 3-[6-[3-(hydroxymethyl)pyrrolidin-1-yl]-3-pyridyl]-2-(1H-tetrazol-5-yl)benzenesulfonamide] | >200 µM | 0.9766 µM | 6.25 µM | 85.6 nM | 4.39 nM | 142 nM | – | – | – | –
7 | NS(=O)(=O)c1c(C(F)(F)F)ccc([C@H]2CC[C@@H](N)CC2)c1-c1nnn[nH]1 [Example 819, 3-((1s,4s)-4-aminocyclohexyl)-2-(1H-tetrazol-5-yl)-6-(trifluoromethyl)benzenesulfonamide] | – | – | – | – | – | – | 97.1 nM | 14.3 nM | 27.4 nM | Klebsiella pneumoniae MITC95 ([1]; IHMA599644 (VIM-1), 95% inhibition of bacterial growth): 3.385 µM; Escherichia coli MITC95 ([2]; CLB30016 (NDM-1), 95% inhibition of bacterial growth): 0.8464 µM; Serratia marcescens MITC95 ([3]; CL5741 (IMP-1), 95% inhibition of bacterial growth): 1.823 µM
8 | NS(=O)(=O)c1c(CC[C@H]2CC[C@@H](N)CC2)ccc(-c2ccc(C3CCNC3)cc2)c1-c1nnn[nH]1 (stereo partly drawn) [Example 585, 4-(2-((1s,4r)-4-aminocyclohexyl)ethyl)-4′-(pyrrolidin-3-yl)-2-(1H-tetrazol-5-yl)-[1,1′-biphenyl]-3-sulfonamide] | 6.25 µM | 0.7813 µM | 3.125 µM | 17 nM | 2.2 nM | 4.58 nM | – | – | – | –
9 | NS(=O)(=O)c1c(Cc2ccccc2)ccc(-c2ccc(C3CCNCC3)cc2)c1-c1nnn[nH]1 [Example 261] | – | – | – | – | – | – | – | – | – | Klebsiella pneumoniae MITC95 ([1]; Klebsiella pneumoniae expressing VIM-1 (IHMA599644), 95% growth inhibition): 100 µM; Escherichia coli MITC95 ([2]; Escherichia coli expressing NDM-1 (CLB30016), 95% growth inhibition): 6.25 µM; Serratia marcescens MITC95 ([3]; Serratia marcescens expressing IMP-1 (CL5741), 95% growth inhibition): 1.563 µM; IC50 (IMP-1; IMP-1 enzyme, CCF2-FA fluorescence assay): 1.72 nM; IC50 (NDM-1; NDM-1 enzyme, CCF2-FA fluorescence assay): 6.59 nM; IC50 (VIM-1; VIM-1 enzyme, CCF2-FA fluorescence assay): 10.2 nM
10 | N=C(N)N1CCC(c2ccc(-c3cccc(S(N)(=O)=O)c3-c3nn[nH]n3)cc2)CC1 [Example 32, 4-(3′-Sulfamoyl-2′-(2H-tetrazol-5-yl)-[1,1′-biphenyl]-4-yl)piperidine-1-carboximidamide] | – | – | – | – | – | – | 18 nM | 3.46 nM | 77.8 nM | Klebsiella pneumoniae expressing VIM-1 (IHMA 599644) MITC95 [1]: 25 µM; Escherichia coli expressing NDM-1 (CLB 30016) MITC95 [2]: 0.5859 µM; Serratia marcescens expressing IMP-1 (CL5741) MITC95 [3]: 0.7813 µM
